Like-named read-outs stand apart in the source and are kept apart here.

In one assay the test system is Alternaria solani. The experiment in a line: Synergistic mixtures, microtiter test, early blight pathogen Alternaria solani (Use Example 24). Format: cell-based. To be noted: single compound.
Another assay has as its system Septoria tritici. The experiment in a line: Synergistic mixtures, microtiter test, leaf blotch pathogen Septoria tritici (Use Example 26). Type of assay: cell-based. The conditions noted are these: single compound.
A further assay has as its system Fusarium culmorum. In words: Synergistic mixtures, microtiter test, Fusarium culmorum (Use Example 27). To be noted: single compound. Format: cell-based.
The subject of another assay is Colletotrichum truncatum. In words: Synergistic mixtures, microtiter test, Colletotrichum truncatum (Use Example 28). Type of assay: cell-based. The conditions noted are these: single compound.
The next assay concerns Pyrenophora teres. The experiment in a line: Synergistic mixtures, microtiter test, net blotch pathogen Pyrenophora teres (Use Example 29). The conditions noted are these: single compound. Format: cell-based.
A further assay relates to Thielaviopsis basicola. In words: Synergistic mixtures, microtiter test, Thielaviopsis basicola (Use Example 31). Type of assay: cell-based. The conditions noted are these: single compound.
In another assay the test system is Puccinia recondita. The experiment in a line: Synergistic mixtures, greenhouse, preventative control of brown rust on wheat caused by Puccinia recondita (Use Example 34). Type of assay: in vivo. To be noted: single compound, untreated control 90% disease. As for the experimental part: These percentages were converted into efficacies. An efficacy of 0 means that the growth level of the pathogens corresponds to that of the untreated control; an efficacy of 100 means that the pathogens were not growing.
The expected efficacies of active compound mixtures were determined using Colby's formula [R. S. Colby, Calculating synergistic and antagonistic responses of herbicide combinations, Weeds 15, 20-22 (1967)] and compared with the observed efficacies. E=x+y−x·y/100 Colby's formula • E expected efficacy, expressed in % of the untreated control, when using the mixture of the compounds A and B at the concentration a and b • x efficacy, expressed in % of the untreated control, when using compound A at a concentration of a • y efficacy, expressed in % of the untreated control, when using compound B at a concentration of b A) Microtiter Tests
The spray solutions were prepared in several steps:
The stock solution were prepared as follows: a mixture of acetone and/or dimethylsulfoxide and the wetting agent/emulsifier Wettol, which is based on ethoxylated alkylphenoles, in a relation (volume) solvent-emulsifier of 99 to 1 was added to 25 mg of the compound to give a total of 10 ml. Water was then added to total volume of 100 ml.
This stock solution was diluted with the described solvent-emulsifier-water mixture to the given concentration. The compounds pyraclostrobin, boscalid and epoxiconazole were used as commercial finished formulations and diluted with water to the stated concentration of the active compound.
The first two developed leaves of pot-grown wheat seedling were sprayed to run-off with an aqueous suspension, containing the concentration of active ingredient or their mixture as described below. The next day the plants were inoculated with spores of Puccinia recondita. To ensure the success the artificial inoculation, the plants were transferred to a humid chamber without light and a relative humidity of 95 to 99% and at temperatures between 20 and 24° C. for 24 h. Then, the plants were cultivated for 6 days in a greenhouse chamber at 20 to 24° C. and a relative humidity between 65 and 70%. The extent of fungal attack on the leaves was visually assessed as % diseased leaf area.

Another assay has as its system Verticillium dahliae. To be noted: single compound.
Assay [1] concerns Pyricularia oryzae. Type of assay: cell-based. The conditions noted are these: single compound.
A further assay deals with Phytophthora infestans. Format: cell-based. To be noted: single compound.
The test system of another assay is Gaeumannomyces graminis. The experiment in a line: Synergistic mixtures, microtiter test, Gaeumannomyces graminis (Use Example 30). Type of assay: cell-based. The conditions noted are these: single compound.
Assay [2] has as its system Pyricularia oryzae. Type of assay: cell-based. To be noted: control =100%, day 7.

On to `Cc1cc(Oc2ccc(C(F)(F)F)cn2)ccc1S(=O)(=O)NCc1ccnc(C)c1C` [Example 203], for which the “Observed efficacy (%)” value with Alternaria solani (0.063 ppm) is recorded as 0%; in the assay on Septoria tritici (4 ppm) it was 45%; with Fusarium culmorum (16 ppm), 1%; with Colletotrichum truncatum (4 ppm) it was 36%; with Pyrenophora teres (0.25 ppm), 34%; in the assay with Thielaviopsis basicola (1 ppm) it was 0%. The “Observed efficacy (%)” value with Thielaviopsis basicola (4 ppm) came to 13%; in the assay with Puccinia recondita (4 ppm), 22%; in the assay with Puccinia recondita (16 ppm), 44%; in the assay with Verticillium dahliae (1 ppm), 52%; with Verticillium dahliae (4 ppm), 56%.
As for `COc1cnccc1CNS(=O)(=O)c1ccc(Oc2nccc(C(F)(F)F)n2)cc1` [Example 64], the “Observed efficacy (%)” value stood at 0% with Alternaria solani (0.063 ppm); 12% in the assay with Pyricularia oryzae [1] (1 ppm); 0% with Fusarium culmorum (16 ppm); 5% with Pyrenophora teres (0.25 ppm); 20% in the assay with Thielaviopsis basicola (16 ppm); 0% with Puccinia recondita (4 ppm). For the same compound, the “Observed efficacy (%)” value with Puccinia recondita (16 ppm) is listed as 0%.
On to `N#Cc1c(Cl)c(Cl)c(Cl)c(C#N)c1Cl` [Chlorothalonil, reference compound], for which the “Observed efficacy (%)” value with Phytophthora infestans (0.004 ppm) is 4%; with Phytophthora infestans (0.25 ppm), 10%; in the assay with Pyricularia oryzae [1] (0.063 ppm), 0%; with Fusarium culmorum (4 ppm), 5%; in the assay on Gaeumannomyces graminis (0.004 ppm), 0%; in the assay on Gaeumannomyces graminis (0.016 ppm), 9%. The “Observed efficacy (%)” value in the assay on Thielaviopsis basicola (1 ppm) stood at 56%; in the assay on Verticillium dahliae (1 ppm) it was 40%.
For the compound `O=S(=O)(NCc1ccncc1)c1ccc(Oc2ccc(C(F)(F)F)cn2)cc1` [Example 9], the “Observed efficacy (%)” value in the assay with Septoria tritici (4 ppm) was 2%; in the assay on Fusarium culmorum (16 ppm) it was 0%; with Gaeumannomyces graminis (0.25 ppm) it was 5%; in the assay with Thielaviopsis basicola (1 ppm), 11%; in the assay on Puccinia recondita (16 ppm), 0%.
Take `Cc1nccc(CNS(=O)(=O)c2ccc(Oc3ncccc3C(F)(F)F)cc2)c1C` [Example 28]: the “Observed efficacy (%)” value amounted to 10% in the assay on Phytophthora infestans (0.016 ppm); 27% in the assay on Pyricularia oryzae [1] (0.063 ppm); 52% in the assay with Pyricularia oryzae [1] (0.25 ppm); 29% in the assay with Septoria tritici (4 ppm); 1% in the assay with Fusarium culmorum (16 ppm); 20% with Colletotrichum truncatum (4 ppm). Besides, the “Observed efficacy (%)” value in the assay with Pyrenophora teres (0.25 ppm) is on record as 4%; with Gaeumannomyces graminis (0.063 ppm), 29%; with Thielaviopsis basicola (16 ppm) it was 23%; in the assay on Puccinia recondita (1 ppm), 0%.
For `COc1cc(CNS(=O)(=O)c2ccc(Oc3ncccc3C(F)(F)F)cc2)ccn1` [Example 13], the “Observed efficacy (%)” value was 16% in the assay on Phytophthora infestans (0.25 ppm); 39% with Septoria tritici (4 ppm); 2% with Fusarium culmorum (16 ppm); 26% in the assay with Colletotrichum truncatum (4 ppm); 19% with Pyrenophora teres (0.063 ppm); 6% in the assay with Gaeumannomyces graminis (0.016 ppm). Besides, the “Observed efficacy (%)” value in the assay on Gaeumannomyces graminis (0.063 ppm) was 31%.
On to `COc1cc(CNS(=O)(=O)c2ccc(Oc3ccccc3)cc2)ccn1` [comparative example 1, reference compound], for which the “growth in [%] at 31 ppm” value in the assay on Pyricularia oryzae [2] turned out to be 97%.
Regarding `Fc1ccc([C@]2(Cn3cncn3)O[C@H]2c2ccccc2Cl)cc1` [Epoxiconazol, reference compound], the “Observed efficacy (%)” value in the assay with Phytophthora infestans (0.001 ppm) is on record as 0%; with Pyricularia oryzae [1] (0.063 ppm) it was 0%; with Gaeumannomyces graminis (0.004 ppm), 2%; in the assay with Puccinia recondita (0.063 ppm), 0%; in the assay with Puccinia recondita (0.25 ppm) it was 0%; in the assay on Puccinia recondita (1 ppm), 33%.
For the compound `COc1cc(CNS(=O)(=O)c2ccc(Oc3ccccn3)cc2)ccn1` [Example 7], the “growth in [%] at 31 ppm” value in the assay with Pyricularia oryzae [2] came out at 53%. In addition, the “Observed efficacy (%)” value is listed as 11% in the assay on Phytophthora infestans (0.016 ppm); 11% with Alternaria solani (0.016 ppm); 1% in the assay with Pyricularia oryzae [1] (0.063 ppm); 7% in the assay with Fusarium culmorum (16 ppm); 20% in the assay with Colletotrichum truncatum (4 ppm); 17% in the assay with Pyrenophora teres (0.25 ppm). Further, the “Observed efficacy (%)” value in the assay on Pyrenophora teres (1 ppm) was determined as 28%; in the assay with Gaeumannomyces graminis (0.063 ppm), 9%; in the assay on Gaeumannomyces graminis (0.25 ppm), 51%.
As for `COc1cc(CNS(=O)(=O)c2ccc(Oc3ccc(C(F)(F)F)cn3)cc2)ccn1` [Example 12], the “Observed efficacy (%)” value in the assay on Alternaria solani (0.063 ppm) is 6%; in the assay on Pyricularia oryzae [1] (0.063 ppm) it was 45%; in the assay on Septoria tritici (4 ppm) it was 47%; with Fusarium culmorum (16 ppm), 3%; in the assay with Colletotrichum truncatum (16 ppm), 50%; in the assay with Pyrenophora teres (0.063 ppm) it was 25%. Moreover, the “Observed efficacy (%)” value with Gaeumannomyces graminis (0.016 ppm) stood at 30%; in the assay on Puccinia recondita (0.25 ppm), 0%; with Puccinia recondita (1 ppm), 22%.
Turning to `O=C(Nc1ccccc1-c1ccc(Cl)cc1)c1cccnc1Cl` [Boscalid, reference compound], the “Observed efficacy (%)” value in the assay with Phytophthora infestans (0.016 ppm) came out at 5%; in the assay with Alternaria solani (0.063 ppm), 23%; in the assay on Fusarium culmorum (16 ppm), 1%; in the assay on Pyrenophora teres (0.25 ppm), 49%; with Puccinia recondita (0.25 ppm), 0%; in the assay with Puccinia recondita (1 ppm), 0%. For the same compound, the “Observed efficacy (%)” value in the assay with Puccinia recondita (4 ppm) and with Puccinia recondita (16 ppm) was 0% in each case.
Take `O=C1C2CC=CCC2C(=O)N1SC(Cl)(Cl)Cl` (centres unmarked) [Captan, reference compound]: the “Observed efficacy (%)” value with Phytophthora infestans (0.004 ppm) came to 0%; in the assay with Phytophthora infestans (0.063 ppm) it was 7%; with Phytophthora infestans (0.25 ppm), 3%; with Pyricularia oryzae [1] (0.063 ppm) it was 0%; with Septoria tritici (1 ppm), 31%; in the assay with Fusarium culmorum (4 ppm), 39%. Also, the “Observed efficacy (%)” value was determined as 5% with Pyrenophora teres (0.016 ppm); 16% with Pyrenophora teres (0.063 ppm); 12% with Gaeumannomyces graminis (0.016 ppm); 42% with Gaeumannomyces graminis (0.063 ppm); 40% with Thielaviopsis basicola (0.25 ppm); 26% with Verticillium dahliae (0.25 ppm).
On to `COc1cc(CNS(=O)(=O)c2ccc(Oc3cccc(C)n3)cc2)ccn1` [Example 45], for which the “Observed efficacy (%)” value in the assay with Alternaria solani (0.063 ppm) is recorded as 1%; with Pyricularia oryzae [1] (0.063 ppm), 30%; in the assay on Septoria tritici (4 ppm), 50%; in the assay with Fusarium culmorum (16 ppm), 2%; in the assay on Colletotrichum truncatum (4 ppm), 25%; in the assay on Pyrenophora teres (1 ppm) it was 25%. Further, the “Observed efficacy (%)” value in the assay with Puccinia recondita (4 ppm) and with Puccinia recondita (16 ppm) was 0% throughout.
In the case of `Cc1nccc(CNS(=O)(=O)c2ccc(Oc3ccc(Br)cn3)cc2)c1C` [Example 71], the “Observed efficacy (%)” value with Alternaria solani (0.063 ppm) is on record as 4%; in the assay on Septoria tritici (4 ppm), 43%; in the assay on Fusarium culmorum (16 ppm) it was 1%; in the assay with Colletotrichum truncatum (4 ppm), 29%; with Pyrenophora teres (0.25 ppm), 20%; in the assay on Gaeumannomyces graminis (0.063 ppm), 52%. Moreover, the “Observed efficacy (%)” value in the assay on Thielaviopsis basicola (1 ppm) stood at 9%; with Thielaviopsis basicola (16 ppm), 56%; in the assay on Puccinia recondita (16 ppm), 0%; with Verticillium dahliae (4 ppm), 55%.
Consider `COc1cc(CNS(=O)(=O)c2ccc(Oc3ncc(C(F)(F)F)cc3C)cc2)ccn1` [Example 160], for which the “Observed efficacy (%)” value with Phytophthora infestans (1 ppm) came out at 17%; in the assay on Pyricularia oryzae [1] (0.25 ppm), 60%; in the assay with Septoria tritici (4 ppm), 55%; in the assay on Fusarium culmorum (16 ppm), 3%; with Colletotrichum truncatum (4 ppm) it was 37%; in the assay with Pyrenophora teres (0.25 ppm), 11%. Further, the “Observed efficacy (%)” value in the assay with Thielaviopsis basicola (1 ppm) is listed as 14%; in the assay with Puccinia recondita (1 ppm) it was 0%; with Puccinia recondita (4 ppm) it was 0%.
`COc1cc(CNS(=O)(=O)c2ccc(Oc3ccc(Cl)cn3)cc2)ccn1` [Example 74]: the “Observed efficacy (%)” value was determined as 0% in the assay with Alternaria solani (0.063 ppm); 58% in the assay on Septoria tritici (4 ppm); 1% with Fusarium culmorum (16 ppm); 35% in the assay on Colletotrichum truncatum (16 ppm); 33% with Pyrenophora teres (0.25 ppm); 32% in the assay on Thielaviopsis basicola (1 ppm). Moreover, the “Observed efficacy (%)” value in the assay with Puccinia recondita (16 ppm) was found to be 44%.

These data come from patent US8299262B2, “Pyridylmethyl-sulfonamide compounds” (BASF SE, priority 2007, dated 2012).
